Assays:
[1] = tested on: EKVX; assay: Anticancer activity, SRB assay, non-small lung cell line EKVX; assay type: cell-based; conditions: Homo sapiens, 48 h continuous drug exposure, read-out: Growth Inhibition GI50
Experimental: (§1) Some of biological activity studies were carried out at the National Cancer Institute (NCI), Maryland, USA.
(§2) The compounds were evaluated for anticancer activity against sixty human cancer cells derived from nine cancer types (leukemia cell line, non-small-cell lung cell line, colon cell line, CNS cell line, melanoma cell line, ovarian cell line, prostate cell line, renal cell line and breast cancer cell line) as shown in Table 1. For each compound, dose response curves for each cell line were measured at a minimum of five concentrations at 10 fold dilutions. A protocol of 48 h continuous drug exposure was used and a sulforhodamine B (SRB) protein assay was used to estimate cell viability or growth.

[2] = tested on: CAKI-1; assay: Anticancer activity, SRB assay, renal cell line CAKI-1; assay type: cell-based; conditions: Homo sapiens; Renal CAKI-1; 48 h continuous drug exposure; read-out: Growth Inhibition GI50
Experimental: as §1, §2

[3] = tested on: COLO 205; assay: Anticancer activity, SRB assay, colon cell line COLO 205; assay type: cell-based; conditions: Homo sapiens; Colon COLO 205; 48 h continuous drug exposure; read-out: Growth Inhibition GI50
Experimental: as §1, §2

[4] = tested on: A549/ATCC; assay: Anticancer activity, SRB assay, non-small lung cell line A549/ATCC; assay type: cell-based, human; conditions: 48 h continuous drug exposure, —^b means GI50 values not attained at the concentrations used; for GI50: Homo sapiens, read-out: Growth Inhibition GI50
Experimental: as §1, §2

[5] = tested on: six breast cancer cell line (MCF-7, MDA-MB-231/ATCC, HS 578T, TD-47D, MDA-MB-468 and BT-549); assay: Anticancer activity, SRB assay, breast panel; assay type: cell-based, human; conditions: for mean graph midpoint values (MG_MID) of log10 TGI (Log10TGI50) / mean graph midpoint values (MG_MID) of Log10LC50 / mean graph midpoint values (MG_MID) of Log10GI50: Breast; for mean graph midpoint values (MG_MID) of log10 TGI (Log10TGI50): log value of concentration of the compound resulting in total inhibition of net cell growth; for mean graph midpoint values (MG_MID) of Log10LC50: log value of the concentration of compounds leading to 50% net cell death; for mean graph midpoint values (MG_MID) of Log10GI50: log values of concentration in mol/L causing 50% inhibition of net cell growth; for GI50: Homo sapiens, six breast cancer cell line, exposure period of at least 48 h, read-out: GI50 (range over the panel)
Experimental: as §1, §2

[6] = tested on: 786-0; assay: Anticancer activity, SRB assay, renal cell line 786-0; assay type: cell-based, human; conditions: Renal 786-0, 48 h continuous drug exposure, —^b means GI50 values not attained at the concentrations used; for GI50: Homo sapiens, read-out: Growth Inhibition GI50
Experimental: as §1, §2

[7] = tested on: U251; assay: Anticancer activity, SRB assay, CNS cell line U251; assay type: cell-based; conditions: Homo sapiens, U-251, 48 h continuous drug exposure, read-out: Growth Inhibition GI50
Experimental: as §1, §2

[8] = tested on: NCI-H522; assay: Anticancer activity, SRB assay, non-small lung cell line NCI-H522; assay type: cell-based, human; conditions: Non-small lung NCl-H522, 48 h continuous drug exposure, —^b means GI50 values not attained at the concentrations used; for GI50: Homo sapiens, NCI-H522, read-out: Growth Inhibition GI50
Experimental: as §1, §2

[9] = tested on: CCRF-CEM; assay: Anticancer activity, SRB assay, leukemia cell line CCRF-CEM; assay type: cell-based, human; conditions: 48 h continuous drug exposure, —^b means GI50 values not attained at the concentrations used; for GI50: Homo sapiens, read-out: Growth Inhibition GI50
Experimental: as §1, §2

[10] = tested on: OVCAR-8; assay: Anticancer activity, SRB assay, ovarian cell line OVCAR-8; assay type: cell-based, human; conditions: Ovarian OVCAR-8, 48 h continuous drug exposure, —^b means GI50 values not attained at the concentrations used; for GI50: Homo sapiens, read-out: Growth Inhibition GI50
Experimental: as §1, §2

[11] = tested on: SK-MEL-2; assay: Anticancer activity, SRB assay, melanoma cell line SK-MEL-2; assay type: cell-based, human; conditions: Melanoma SK-MEL-2, 48 h continuous drug exposure, —^b means GI50 values not attained at the concentrations used; for GI50: Homo sapiens, read-out: Growth Inhibition GI50
Experimental: as §1, §2

[12] = tested on: IGROV1; assay: Anticancer activity, SRB assay, ovarian cell line IGROV1; assay type: cell-based, human; conditions: —^b means GI50 values not attained at the concentrations used; for GI50: Homo sapiens, IGROV-1, 48 h continuous drug exposure, read-out: Growth Inhibition GI50
Experimental: as §1, §2

[13] = tested on: TK-10; assay: Anticancer activity, SRB assay, renal cell line TK-10; assay type: cell-based, human; conditions: Renal TK-10, 48 h continuous drug exposure, —^b means GI50 values not attained at the concentrations used; for GI50: Homo sapiens, read-out: Growth Inhibition GI50
Experimental: as §1, §2

[14] = tested on: eight renal cancer cell line (786-0, A498, ACHN, CAKI-1, SN12C, TK-10, UO-31 and RXF 393); assay: Anticancer activity, SRB assay, renal panel; assay type: cell-based, human; design: mean graph midpoint values (MG_MID) of Log10LC50 / mean graph midpoint values (MG_MID) of log10 TGI (Log10TGI50): unit not given here; conditions: for GI50: Homo sapiens, eight renal cancer cell line, exposure period of at least 48 h, read-out: in vitro anticancer activity (range over the panel); for mean graph midpoint values (MG_MID) of log10 TGI (Log10TGI50) / mean graph midpoint values (MG_MID) of Log10LC50 / mean graph midpoint values (MG_MID) of Log10GI50: Renal; for mean graph midpoint values (MG_MID) of log10 TGI (Log10TGI50): log value of concentration of the compound resulting in total inhibition of net cell growth; for mean graph midpoint values (MG_MID) of Log10LC50: log value of the concentration of compounds leading to 50% net cell death; for mean graph midpoint values (MG_MID) of Log10GI50: log values of concentration in mol/L causing 50% inhibition of net cell growth
Experimental: as §1, §2

[15] = tested on: HCC-2998; assay: Anticancer activity, SRB assay, colon cell line HCC-2998; assay type: cell-based, human; conditions: Colon HCC-2998, 48 h continuous drug exposure, —^b means GI50 values not attained at the concentrations used; for GI50: Homo sapiens, read-out: Growth Inhibition GI50
Experimental: as §1, §2

[16] = tested on: T-47D; assay: Anticancer activity, SRB assay, breast cell line T-47D; assay type: cell-based, human; conditions: Breast T-47D, 48 h continuous drug exposure, —^b means GI50 values not attained at the concentrations used; for GI50: Homo sapiens, T47D, read-out: Growth Inhibition GI50
Experimental: as §1, §2

[17] = tested on: HCT-15; assay: Anticancer activity, SRB assay, colon cell line HCT-15; assay type: cell-based; conditions: Homo sapiens; Colon HCT-15; 48 h continuous drug exposure; read-out: Growth Inhibition GI50
Experimental: as §1, §2

[18] = tested on: RXF 393; assay: Anticancer activity, SRB assay, renal cell line RXF 393; assay type: cell-based, human; conditions: Renal RXF 393; 48 h continuous drug exposure; —^b means GI50 values not attained at the concentrations used
Experimental: as §1, §2

Structure (SMILES): Cc1cc(C#Cc2ccccc2)ccc1-n1c(/C=C/c2ccc(O)cc2)nc2ccccc2c1=O [Compound 4b, (E)-2-(4-Hydroxystyryl)-3-(2-methyl-4-(phenylethynyl)phenyl)quinazolin-4(3H)-one]
- GI50 [1]: 2.43 µM
- GI50 [2]: 3.3 µM
- GI50 [3]: 1.99 µM
- GI50 [4]: 3.14 µM
- mean graph midpoint values (MG_MID) of log10 TGI (Log10TGI50) [5]: −4.58
- mean graph midpoint values (MG_MID) of Log10LC50 [5]: >−4.00
- mean graph midpoint values (MG_MID) of Log10GI50 [5]: −5.54 mol/L
- GI50 [5]: 2.02 to 3.89 µM
- GI50 [6]: 3.65 µM
- GI50 [7]: 4.33 µM
- GI50 [8]: 2.26 µM
- GI50 [9]: 3.26 µM
- GI50 [10]: 3.98 µM
- GI50 [11]: 1.93 µM
- GI50 [12]: 20.6 µM
- GI50 [13]: 2.62 µM
- GI50 [14]: 1.56 to 3.77 µM
- mean graph midpoint values (MG_MID) of log10 TGI (Log10TGI50) [14]: −4.65
- mean graph midpoint values (MG_MID) of Log10LC50 [14]: >−4.00
- mean graph midpoint values (MG_MID) of Log10GI50 [14]: −5.52 mol/L
- GI50 [15]: 2.35 µM
- GI50 [16]: 2.02 µM
- GI50 [17]: 2.5 µM

Structure (SMILES): Cc1cc(C#Cc2ccccc2)ccc1-n1c(/C=C/c2cc(O)ccc2O)nc2ccccc2c1=O [Compound 4c, (E)-2-(2,5-Dihydroxystyryl)-3-(2-methyl-4-(phenylethynyl)phenyl)quinazolin-4(3H)-one]
- GI50 [1]: 1.24 µM
- GI50 [2]: 2.15 µM
- GI50 [3]: 1.48 µM
- GI50 [4]: 1.28 µM
- mean graph midpoint values (MG_MID) of log10 TGI (Log10TGI50) [5]: −5.39
- mean graph midpoint values (MG_MID) of Log10LC50 [5]: −4.66
- mean graph midpoint values (MG_MID) of Log10GI50 [5]: −5.84 mol/L
- GI50 [5]: 1.14 to 1.61 µM
- GI50 [6]: 1.74 µM
- GI50 [7]: 1.45 µM
- GI50 [8]: 1.29 µM
- GI50 [9]: 1.54 µM
- GI50 [10]: 1.94 µM
- GI50 [11]: 1.4 µM
- GI50 [12]: 2.45 µM
- GI50 [13]: 2.03 µM
- GI50 [14]: 0.37 to 2.15 µM
- mean graph midpoint values (MG_MID) of log10 TGI (Log10TGI50) [14]: −5.43
- mean graph midpoint values (MG_MID) of Log10LC50 [14]: −4.93
- mean graph midpoint values (MG_MID) of Log10GI50 [14]: −5.86 mol/L
- GI50 [15]: 1.36 µM
- GI50 [16]: 1.14 µM
- GI50 [17]: 1.03 µM

Structure (SMILES): COc1ccc2cc(C#Cc3ccc(-n4c(/C=C/c5cc(OC)c(OC)c(OC)c5)nc5ccccc5c4=O)c(C)c3)ccc2c1 [Compound 6l, (E)-3-(4-((6-Methoxynaphthalen-2-yl)ethynyl)-2-methylphenyl)-2-(3,4,5-trimethoxystyryl)quinazolin-4(3H)-one]
- GI50 [1]: 24.1 µM
- GI50 [2]: 4.91 µM
- GI50 [3]: 6.96 µM
- Growth Inhibition GI50 [4]: —^b
- mean graph midpoint values (MG_MID) of log10 TGI (Log10TGI50) [5]: >−4.00
- mean graph midpoint values (MG_MID) of Log10LC50 [5]: >−4.00
- mean graph midpoint values (MG_MID) of Log10GI50 [5]: −4.51 mol/L
- GI50 [5]: 3.8 to 63.8 µM
- Growth Inhibition GI50 [6]: —^b
- GI50 [7]: 7.4 µM
- Growth Inhibition GI50 [8]: —^b
- Growth Inhibition GI50 [9]: —^b
- Growth Inhibition GI50 [10]: —^b
- Growth Inhibition GI50 [11]: —^b
- Growth Inhibition GI50 ([12]; 48 h continuous drug exposure): —^b
- Growth Inhibition GI50 [13]: —^b
- GI50 [14]: 4.91 µM
- mean graph midpoint values (MG_MID) of log10 TGI (Log10TGI50) [14]: >−4.00
- mean graph midpoint values (MG_MID) of Log10LC50 [14]: >−4.00
- mean graph midpoint values (MG_MID) of Log10GI50 [14]: −4.16 mol/L
- Growth Inhibition GI50 [18]: —^b
- Growth Inhibition GI50 [15]: —^b
- Growth Inhibition GI50 [16]: —^b
- GI50 [17]: 1.22 µM
